Reference: publication PMC4508619 (Scientific Reports, 2015)
“Also recorded” adds a separate entry of the source.

Legend:
Assay type in all cases: cell-based
[1] = biological target: T1, rTRPV1 concatemer 2wt/2ya (two Y511A subunits) (Rattus norvegicus, UniProt O35433, Y511A); assay: Whole-cell patch-clamp, HEK293T cells expressing 2wt/2ya concatemer; conditions: −40 mV
T1 construct: expressed in transfected cells; host or cells: HEK293T, transient, pCDNA3.1+
Description: (§1) Next, we determined the concentration-response relationship of the various concatemeric constructs, using the whole-cell configuration of the patch clamp at holding voltage of −40 mV.
(§2) Patch clamp experiments were executed using HEK293T cells in the whole cell or outside-out configuration 24 hrs after transfection, as previously described. 30,000 cells were plated on glass coverslips (12 mm) coated with relevant amounts of poly-D-Lysine (PDL; Sigma-Aldrich, MO, USA) and/or Matrigel (BD-biosciences, MA, USA) according to the configuration (see below). […] Recordings were performed using Axopatch 200B patch clamp amplifier (Molecular Devices, CA, USA), and data was collected and analyzed using pClamp 10.2 software (Molecular Devices, CA, USA). […]
(§3) HEK293T cells were plated on coverslips pre-coated with 0.05 mg/ml poly-D-Lysine (PDL; Sigma-Aldrich, MO, USA) and 1 μg/ml Matrigel (BD-biosciences, Bedford, MA, USA) three hrs prior to recordings. […] To avoid potential voltage errors due to receptor overexpression, dose responses were recorded at −40 mV, with the maximal current limited to ~2.5 nA. […] Proton response recordings were performed with 50 μM Amiloride in the bath solution (Sigma-Aldrich, MO, USA) in order to block natively expressed ASICs[43].
(§4) Dose response curves were calculated by SigmaPlot software (San Jose, CA) using the sigmoidal Hill equation as follows: […]

[2] = biological target: T2, concatemeric rTRPV1 (4wt) (Rattus norvegicus, UniProt O35433); assay: Two electrode voltage clamp, Xenopus laevis oocytes expressing 4wt concatemer; conditions: capsaicin, TEVC
Description: (§5) The current-voltage relationship was determined using whole-cell patch-clamp recordings.
(§6) Stage V–VI Xenopus laevis oocytes were prepared as previously described. Oocytes were injected up to 24 hr after isolation with a total of 5 ng cRNA, and assayed 5–10 days later. Two electrode voltage-clamp recordings were carried out at RT using GeneClamp 500 connected to digidata1322A and pCLAMP 8.2 (Molecular Devices, CA, USA). Electrodes (Sutter Instruments, CA, USA) were filled with 3 M KCl and had resistance of 0.5–1 MΩ. Oocytes were continuously perfused with normal frog ringer (NFR) solution without calcium containing (mM): 115 NaCl, 2.5 KCl, 2 […], and 10 HEPES, pH 7.4 with NaOH.

rTRPV1 (wt) [3] = biological target: T3, rTRPV1 (wt) (Rattus norvegicus, UniProt O35433); assay: Whole-cell patch-clamp, HEK293T cells transiently expressing wt rTRPV1; parameters: expressed in transfected cells; host or cells: HEK293T, transient, pCDNA3.1+
Description: as §5
as §2, with “below). Patch electrodes were fabricated from borosilicate glass using the P1000 Micropipette Puller (Sutter Instrument, CA, USA) and fire-polished using the microforge MF-900 (Narishige, Tokyo, Japan).” for “below).”
as §3, with “ASICs[43]. […]” for “ASICs[43].”

[4] = biological target: T2, concatemeric rTRPV1 (4wt); assay: Single-channel outside-out patch recording, Flp-in TREX HEK293 cells, 4wt; parameters: expressed in transfected cells; host or cells: HEK293T, transient, pCDNA3.1+
Source text: (§7) In order to facilitate recording from a single channel, we used an inducible system, Flp-in TREX, which allows doxycycline-controlled construct expression levels. […] The membrane potential was held at +60 mV considering that the conductance of TRPV1 receptor channels is higher at positive potentials. The pipette contained standard intracellular patch solution, and the patch of membrane was continuously perfused with standard extracellular solution.
(§8) Briefly, cells were co-transfected (performed as described above) with pcDNA5/FRT/TO containing the gene of interest and the Flp-recombinase expression vector pOG44 into the Flp-In host cell line (Invitrogen, MA, USA) at a ratio of 1:9, respectively, as previously described.
(§9) Patch clamp experiments were executed using HEK293T cells in the whole cell or outside-out configuration 24 hrs after transfection, as previously described. 30,000 cells were plated on glass coverslips (12 mm) coated with relevant amounts of poly-D-Lysine (PDL; Sigma-Aldrich, MO, USA) and/or Matrigel (BD-biosciences, MA, USA) according to the configuration (see below). Patch electrodes were fabricated from borosilicate glass using the P1000 Micropipette Puller (Sutter Instrument, CA, USA) and fire-polished using the microforge MF-900 (Narishige, Tokyo, Japan). Electrodes were coated with Sylgard (World Precision Instrument, FL, USA) to reduce the capacity of the recording pipette and to improve noise characteristics. […] Recordings were performed using Axopatch 200B patch clamp amplifier (Molecular Devices, CA, USA), and data was collected and analyzed using pClamp 10.2 software (Molecular Devices, CA, USA). All experiments were carried out at room temperature.
Single-channel currents were recorded in the outside-out patch configuration of the patch-clamp technique, as previously described. All single-channel recordings were done using the stable cell line Flp-in TREX 293 cells. Cells were plated on coverslips coated with 0.2 mg/ml PDL one hour prior induction. Doxycycline concentration and induction times for obtaining a membrane patches with a single channel were determined for each construct. Generally, 0.3–1 μg/ml doxycycline was used for 2–4 hrs prior to recordings. Patch electrodes were fire-polished to a resistance of 10–15 MΩ. The pipette solution contained (mM): 130 KCl, 4 NaCl, 2 MgSO4, 0.5 CaCl2, 1 EGTA and 10 HEPES adjusted to pH 7.2 with KOH. Single-channel currents were low-pass filtered at 5 kHz and digitized at 50 kHz. Occasional large brief noise spikes were visually identified and removed from the current traces. Single-channel recordings were analyzed with the pCLAMP 10.2 program Clampfit (Axon Instruments, USA), as previously described. For each concatemeric construct, 150–2000 events were collected from each of 3–5 separate patches. […]

[5] = biological target: T4, rTRPV1 concatemer 4qa (E600Q/E648A in all subunits) (Rattus norvegicus, UniProt O35433, E600Q/E648A); assay: Whole-cell patch-clamp, HEK293T cells expressing 4qa concatemer; conditions: capsaicin 1 μM, −40 mV
T4 construct: expressed in transfected cells; host or cells: HEK293T, transient, pCDNA3.1+
Description: as §9, with “Japan).” for “Japan). Electrodes were coated with Sylgard (World Precision Instrument, FL, USA) to reduce the capacity of the recording pipette and to improve noise characteristics.”, “All experiments were carried out at room temperature.” left out
as §3

rTRPV1 (wt) [6] = biological target: T3, rTRPV1 (wt); assay: Two electrode voltage clamp, Xenopus laevis oocytes expressing wt rTRPV1; conditions: capsaicin, TEVC
Description: as §5, §6

[7] = biological target: T5, rTRPV1 concatemer 3wt/ya (one Y511A subunit) (Rattus norvegicus, UniProt O35433, Y511A); assay: Whole-cell patch-clamp, HEK293T cells expressing 3wt/ya concatemer; conditions: −40 mV
T5 construct: expressed in transfected cells; host or cells: HEK293T, transient, pCDNA3.1+
Description: as §1, §2, §3, §4

rTRPV1 concatemer wt/3ya = biological target: T6, rTRPV1 concatemer wt/3ya (Rattus norvegicus, UniProt O35433, Y511A); assay: Single-channel outside-out patch recording, Flp-in TREX HEK293 cells, wt/3ya; conditions: for single-channel average amplitude, wt/3ya / unitary conductance, wt/3ya: +60 mV, outside-out
T6 construct: expressed in transfected cells
Source text: as §7, §8, §9
Single-channel currents were recorded in the outside-out patch configuration of the patch-clamp technique, as previously described. All single-channel recordings were done using the stable cell line Flp-in TREX 293 cells. Cells were plated on coverslips coated with 0.2 mg/ml PDL one hour prior induction. Doxycycline concentration and induction times for obtaining a membrane patches with a single channel were determined for each construct. Generally, 0.3–1 μg/ml doxycycline was used for 2–4 hrs prior to recordings. Patch electrodes were fire-polished to a resistance of 10–15 MΩ. The pipette solution contained (mM): 130 KCl, 4 NaCl, 2 MgSO4, 0.5 CaCl2, 1 EGTA and 10 HEPES adjusted to pH 7.2 with KOH. Single-channel currents were low-pass filtered at 5 kHz and digitized at 50 kHz. Occasional large brief noise spikes were visually identified and removed from the current traces. Single-channel recordings were analyzed with the pCLAMP 10.2 program Clampfit (Axon Instruments, USA), as previously described. For each concatemeric construct, 150–2000 events were collected from each of 3–5 separate patches. To determine channel amplitude, all-point amplitude histograms were created using data digitally filtered at 2 kHz. To determine channel open probability, traces filtered at 5 kHz were idealized using the half-amplitude threshold crossing method (pCLAMP 10.2)[38].

[8] = biological target: T7, rTRPV1 concatemer wt/3ya (three Y511A subunits) (Rattus norvegicus, UniProt O35433, Y511A); assay: Whole-cell patch-clamp, HEK293T cells expressing wt/3ya concatemer
T7 construct: expressed in transfected cells; host or cells: HEK293T, transient, pCDNA3.1+
Description: as §1, §2, §3, §4

[9] = biological target: T2, concatemeric rTRPV1 (4wt); assay: Whole-cell patch-clamp, HEK293T cells expressing tetrameric concatemer 4wt; parameters: expressed in transfected cells; host or cells: HEK293T, transient, pCDNA3.1+
Description: as §5, §1, §2
as §3, with “ASICs[43]. […]” for “ASICs[43].”

[10] = biological target: T8, rTRPV1 concatemer 4ya (Y511A in all subunits) (Rattus norvegicus, UniProt O35433, Y511A); assay: Whole-cell patch-clamp, HEK293T cells expressing 4ya concatemer; conditions: capsaicin 100 μM, whole-cell voltage ramps −80 to +80 mV
T8 construct: expressed in transfected cells; host or cells: HEK293T, transient, pCDNA3.1+
Description: as §9, with “Japan).” for “Japan). Electrodes were coated with Sylgard (World Precision Instrument, FL, USA) to reduce the capacity of the recording pipette and to improve noise characteristics.”, “All experiments were carried out at room temperature.” left out
as §3

[11] = 2 μM capsaicin, +60 mV, outside-out

T6 sequence (O35433 whole entry, stated change not applied): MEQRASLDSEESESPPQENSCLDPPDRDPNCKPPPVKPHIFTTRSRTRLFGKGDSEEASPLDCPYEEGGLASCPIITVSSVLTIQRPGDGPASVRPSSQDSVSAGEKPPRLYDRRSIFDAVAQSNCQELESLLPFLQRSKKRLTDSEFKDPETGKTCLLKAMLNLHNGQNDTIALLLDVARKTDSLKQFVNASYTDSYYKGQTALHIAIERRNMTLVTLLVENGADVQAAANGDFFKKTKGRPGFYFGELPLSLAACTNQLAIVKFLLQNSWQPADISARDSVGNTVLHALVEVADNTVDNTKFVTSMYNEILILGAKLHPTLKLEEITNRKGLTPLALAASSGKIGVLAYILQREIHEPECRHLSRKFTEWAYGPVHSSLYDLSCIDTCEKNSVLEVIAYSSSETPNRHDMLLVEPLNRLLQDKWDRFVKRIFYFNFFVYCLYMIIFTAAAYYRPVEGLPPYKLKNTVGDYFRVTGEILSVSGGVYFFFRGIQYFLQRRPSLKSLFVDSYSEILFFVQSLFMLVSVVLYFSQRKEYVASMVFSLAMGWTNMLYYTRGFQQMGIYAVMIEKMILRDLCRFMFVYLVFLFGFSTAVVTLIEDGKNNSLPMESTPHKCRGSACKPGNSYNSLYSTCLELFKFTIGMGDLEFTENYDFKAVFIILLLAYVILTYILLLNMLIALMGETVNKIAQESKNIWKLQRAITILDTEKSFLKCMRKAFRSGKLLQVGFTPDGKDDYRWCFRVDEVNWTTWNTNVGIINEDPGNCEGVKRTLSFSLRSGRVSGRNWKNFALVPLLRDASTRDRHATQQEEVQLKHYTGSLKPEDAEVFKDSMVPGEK
T6 sequence (O35433 2-838 Y511A limits assumed): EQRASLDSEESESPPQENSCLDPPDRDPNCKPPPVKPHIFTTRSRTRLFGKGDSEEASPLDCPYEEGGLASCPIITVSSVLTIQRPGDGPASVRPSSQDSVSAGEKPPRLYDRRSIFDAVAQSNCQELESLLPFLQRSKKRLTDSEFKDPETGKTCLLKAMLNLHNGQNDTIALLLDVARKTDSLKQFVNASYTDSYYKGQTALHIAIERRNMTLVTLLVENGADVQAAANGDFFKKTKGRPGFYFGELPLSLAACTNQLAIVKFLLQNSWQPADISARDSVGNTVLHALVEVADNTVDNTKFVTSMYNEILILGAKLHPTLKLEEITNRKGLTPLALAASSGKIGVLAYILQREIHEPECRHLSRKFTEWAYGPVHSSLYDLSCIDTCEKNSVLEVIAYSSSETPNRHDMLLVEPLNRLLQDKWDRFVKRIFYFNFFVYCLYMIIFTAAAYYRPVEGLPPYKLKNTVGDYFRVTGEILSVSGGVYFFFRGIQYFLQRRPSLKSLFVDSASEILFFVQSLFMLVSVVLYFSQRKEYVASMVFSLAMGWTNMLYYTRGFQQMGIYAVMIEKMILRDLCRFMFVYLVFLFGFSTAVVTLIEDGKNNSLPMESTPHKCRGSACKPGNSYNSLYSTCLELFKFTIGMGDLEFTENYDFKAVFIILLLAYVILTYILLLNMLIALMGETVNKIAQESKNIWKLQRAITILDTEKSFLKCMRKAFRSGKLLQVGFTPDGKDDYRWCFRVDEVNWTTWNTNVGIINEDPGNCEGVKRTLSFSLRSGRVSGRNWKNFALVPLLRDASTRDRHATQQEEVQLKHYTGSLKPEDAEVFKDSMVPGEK
T6 sequence (O35433 2-838 Y511A limits assumed): as above
T6 sequence (O35433 2-838 Y511A limits assumed): as above
T2 sequence (O35433 whole entry): as the sequence (O35433 whole entry, stated change not applied) above
T2 sequence (O35433 2-838 limits assumed): as the sequence (O35433 2-838 Y511A limits assumed) above, with A510Y counted along it
T2 sequence (O35433 2-838 limits assumed): as the sequence (O35433 2-838 Y511A limits assumed) above, with A510Y counted along it
T2 sequence (O35433 2-838 limits assumed): as the sequence (O35433 2-838 Y511A limits assumed) above, with A510Y counted along it
T7 sequence (O35433 whole entry, stated change not applied): as the sequence (O35433 whole entry, stated change not applied) above
T7 sequence (O35433 2-838 Y511A limits assumed): as the sequence (O35433 2-838 Y511A limits assumed) above
T7 sequence (O35433 2-838 Y511A limits assumed): as above
T7 sequence (O35433 2-838 Y511A limits assumed): as above
T3 sequence (O35433 whole entry): as the sequence (O35433 whole entry, stated change not applied) above
T8 sequence (O35433 whole entry Y511A): as the sequence (O35433 whole entry, stated change not applied) above, with Y511A counted along it
T8 sequence (O35433 2-838 Y511A limits assumed): as the sequence (O35433 2-838 Y511A limits assumed) above
T8 sequence (O35433 2-838 Y511A limits assumed): as above
T8 sequence (O35433 2-838 Y511A limits assumed): as above
T4 sequence (O35433 whole entry E600Q/E648A): as the sequence (O35433 whole entry, stated change not applied) above, with E600Q, E648A counted along it
T4 sequence (O35433 2-838 E600Q/E648A limits assumed): as the sequence (O35433 2-838 Y511A limits assumed) above, with A510Y, E599Q, E647A counted along it
T4 sequence (O35433 2-838 E600Q/E648A limits assumed): as the sequence (O35433 2-838 Y511A limits assumed) above, with A510Y, E599Q, E647A counted along it
T4 sequence (O35433 2-838 E600Q/E648A limits assumed): as the sequence (O35433 2-838 Y511A limits assumed) above, with A510Y, E599Q, E647A counted along it
T5 sequence (O35433 whole entry, stated change not applied): as the sequence (O35433 whole entry, stated change not applied) above
T5 sequence (O35433 2-838 limits assumed, stated change not applied): as the sequence (O35433 2-838 Y511A limits assumed) above, with A510Y counted along it
T5 sequence (O35433 2-838 limits assumed, stated change not applied): as the sequence (O35433 2-838 Y511A limits assumed) above, with A510Y counted along it
T5 sequence (O35433 2-838 Y511A limits assumed): as the sequence (O35433 2-838 Y511A limits assumed) above
T1 sequence (O35433 whole entry, stated change not applied): as the sequence (O35433 whole entry, stated change not applied) above
T1 sequence (O35433 2-838 limits assumed, stated change not applied): as the sequence (O35433 2-838 Y511A limits assumed) above, with A510Y counted along it
T1 sequence (O35433 2-838 Y511A limits assumed): as the sequence (O35433 2-838 Y511A limits assumed) above
T1 sequence (O35433 2-838 Y511A limits assumed): as above

- Hill coefficient nH for capsaicin, 2wt/2ya [1]: 1.2
- average current amplitude ICAP+80mV (±SEM), oocytes, 4wt [2]: 4.7 ± 0.2 μA
- average current amplitude ICAP+80mV (±SEM), HEK293T, wt (rTRPV1 (wt) [3]; capsaicin 1 μM, +80 mV): 8.3 ± 1.2 nA
- Hill coefficient nH for capsaicin, wt (rTRPV1 (wt) [3]; whole-cell, −40 mV): 1.3
- capsaicin concentration required to achieve full TRPV1 activation, 4wt [4]: 2 µM
- open probability, 4wt [4, 11]: 0.89 ± 0.10
- single-channel average amplitude, 4wt [4, 11]: 5.2 ± 0.4 pA
- unitary conductance, 4wt [4, 11]: 86 ± 3 pS
- capsaicin response, 4qa vs 4wt [5]: unaffected
- average current amplitude ICAP+80mV (±SEM), oocytes, wt (rTRPV1 (wt) [6]): 5.6 ± 0.3 μA
- Hill coefficient nH for capsaicin, 3wt/ya [7]: 1.1
- single-channel average amplitude, wt/3ya (rTRPV1 concatemer wt/3ya; 2 μM capsaicin): 4.8 ± 0.5 pA
- unitary conductance, wt/3ya (rTRPV1 concatemer wt/3ya; 2 μM capsaicin): 80 ± 5 pS
- single-channel average amplitude, wt/3ya (rTRPV1 concatemer wt/3ya; 30 μM capsaicin): 4.9 ± 0.4 pA
- unitary conductance, wt/3ya (rTRPV1 concatemer wt/3ya; 30 μM capsaicin): 82 ± 3 pS
- capsaicin concentration required to achieve full TRPV1 activation, wt/3ya (rTRPV1 concatemer wt/3ya; single functional VBS): 30 µM
- Hill coefficient nH for capsaicin, wt/3ya ([8]; whole-cell, −40 mV): 1.1
- average current amplitude ICAP+80mV (±SEM), HEK293T, 4wt ([9]; capsaicin 1 μM, +80 mV): 7.8 ± 1.8 nA
- Hill coefficient nH for capsaicin, 4wt ([9]; whole-cell, −40 mV): 1.4
SMILES: COc1cc(CNC(=O)CCCC/C=C/C(C)C)ccc1O [capsaicin]
- response of wt/3ya construct to capsaicin ([8]; capsaicin 100 μM, whole-cell voltage ramps −80 to +80 mV): robust outward-rectifying current; also recorded: robust capsaicin response
- response of 4ya construct to capsaicin [10]: insensitive; also recorded: nearly eliminated
